18 compounds from US20250340557A1, “PYRIMIDINE DERIVATIVE” (ASKA PHARMACEUTICAL CO., LTD., priority 2022, published 2025) can be followed below.

The structures appear in SMILES notation.

The target in the first assay is T1, human mPGES-1 (Homo sapiens, UniProt O14684).
T1 construct: made in house; host or cells: COS-1 cells (transient transfection; microsomal fraction used as enzyme)
T1 sequence (O14684 1-152): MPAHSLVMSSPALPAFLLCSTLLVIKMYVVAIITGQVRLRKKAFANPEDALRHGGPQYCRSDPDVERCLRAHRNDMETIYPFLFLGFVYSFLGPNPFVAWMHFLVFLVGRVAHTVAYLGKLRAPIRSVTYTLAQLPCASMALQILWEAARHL
The experiment in a line: Test for mPGES-1 inhibitory activity (microsomal enzyme, PGE2 EIA). As to conditions: microsomes from COS-1 cells transfected with human mPGES-1 cDNA; substrate PGH2 1 μM; 4° C., 4 minutes; PGE2 measured by EIA; read-out: h mPGES1 IC50. It is filed as biochemical. The method, boiled down: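 IC50 values were derived from EIA-quantified PGE2 after a 4 min, 4 °C reaction with PGH2 at 1 μM final, stopped with ferric chloride/citric acid. Beforehand, compound (2% DMSO final) sat 15 min at 4 °C with human mPGES-1 microsomes from transiently transfected COS-1 cells. Buffer was sodium phosphate pH 7.2 containing 2.5 mM reduced glutathione and 1 mM EDTA.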
What is called IC50 is the concentration at which inhibition is half-maximal. On to `Cc1nc(-c2c(C(F)(F)F)ccc(CNC(=O)C3CCN(c4cccc(C(F)(F)F)c4)CC3)c2F)[nH]c(=O)c1F` [Example 97, N-[2-fluoro-3-(5-fluoro-4-methyl-6-oxo-1,6-dihydropyrimidin-2-yl)-4-(trifluoromethyl)benzyl]-1-[3-(trifluoromethyl)phenyl]piperidine-4-carboxamide], for which the 50% inhibitory concentration (IC50) was less than 1 nM. Same read-out and setting: under `Cc1nc(-c2c(C(F)(F)F)ccc(CNC(=O)[C@H]3CC[C@H](OCc4ccc(F)cc4F)CC3)c2F)[nH]c(=O)c1F` [Example 126, trans-4-[(2,4-difluorobenzyl)oxy]-N-[2-fluoro-3-(5-fluoro-4-methyl-6-oxo-1,6-dihydropyrimidin-2-yl)-4-(trifluoromethyl)benzyl]cyclohexane-1-carboxamide] stands less than 1 nM; under `CCc1cc(=O)[nH]c(-c2c(C(F)(F)F)ccc(CNC(=O)[C@H]3CC[C@H](OCc4ccc(F)cc4F)CC3)c2F)n1` [Example 129, trans-4-[(2,4-difluorobenzyl)oxy]-N-[3-(4-ethyl-6-oxo-1,6-dihydropyrimidin-2-yl)-2-fluoro-4-(trifluoromethyl)benzyl]cyclohexane-1-carboxamide], 25 nM. Still for that read-out and setting: under `O=c1cc(C(F)(F)F)nc(-c2c(C(F)(F)F)ccc(CNC(=O)[C@H]3C[C@@H](OCc4ccccc4C(F)(F)F)C3)c2F)[nH]1` [Example 143, cis-N-{2-fluoro-3-[6-oxo-4-(trifluoromethyl)-1,6-dihydropyrimidin-2-yl]-4-(trifluoromethyl)benzyl}-3-{[2-(trifluoromethyl)benzyl]oxy}cyclobutane-1-carboxamide] stands 28 nM.

As to `CCc1nc(-c2c(C(F)(F)F)ccc(CNC(=O)[C@H]3CC[C@H](OCc4ccc(Cl)cc4)CC3)c2F)[nH]c(=O)c1F` [Example 125, trans-4-[(4-chlorobenzyl)oxy]-N-[3-(4-ethyl-5-fluoro-6-oxo-1,6-dihydropyrimidin-2-yl)-2-fluoro-4-(trifluoromethyl)benzyl]cyclohexane-1-carboxamide], the IC50 was 19 nM. The same measure, in the same setting: the value for `Cc1cc(=O)[nH]c(-c2c(C(F)(F)F)ccc(CNC(=O)C3CCN(c4ccc(C(F)(F)F)cn4)CC3)c2F)n1` [Example 34, N-[2-fluoro-3-(4-methyl-6-oxo-1,6-dihydropyrimidin-2-yl)-4-(trifluoromethyl)benzyl]-1-[5-(trifluoromethyl)pyridin-2-yl]piperidine-4-carboxamide] was less than 1 nM; that for `O=C(NCc1ccc(C(F)(F)F)c(-c2nc(C(F)(F)F)cc(=O)[nH]2)c1F)C1CCN(c2ccc3nccn3n2)CC1` [Example 1, N-{2-fluoro-3-[6-oxo-4-(trifluoromethyl)-1,6-dihydropyrimidin-2-yl]-4-(trifluoromethyl)benzyl}-1-(imidazo[1,2-b]pyridazin-6-yl)piperidine-4-carboxamide] was 37 nM; that for `CCc1cc(=O)[nH]c(-c2c(C(F)(F)F)ccc(CNC(=O)C3CCN(c4ccc(C(F)(F)F)cn4)CC3)c2F)n1` [Example 23, N-[3-(4-ethyl-6-oxo-1,6-dihydropyrimidin-2-yl)-2-fluoro-4-(trifluoromethyl)benzyl]-1-[5-(trifluoromethyl)pyridin-2-yl]piperidine-4-carboxamide] was 4.8 nM. Still for that read-out and setting: the value for `Cc1cc(=O)[nH]c(-c2c(C(F)(F)F)ccc(CNC(=O)C3CCN(c4ccc(OC(F)(F)F)cn4)CC3)c2F)n1` [Example 53, N-[2-fluoro-3-(4-methyl-6-oxo-1,6-dihydropyrimidin-2-yl)-4-(trifluoromethyl)benzyl]-1-[5-(trifluoromethoxy)pyridin-2-yl]piperidine-4-carboxamide] was 49 nM; that for `O=c1cc(C(F)(F)F)nc(-c2c(C(F)(F)F)ccc(CNC(=O)[C@H]3C[C@H](OCc4ccccc4Cl)C3)c2F)[nH]1` [Example 136, trans-3-[(2-chlorobenzyl)oxy]-N-{2-fluoro-3-[6-oxo-4-(trifluoromethyl)-1,6-dihydropyrimidin-2-yl]-4-(trifluoromethyl)benzyl}cyclobutane-1-carboxamide] was 2 nM.

Turning to `Cc1nc(-c2c(C(F)(F)F)ccc(CNC(=O)C3CCN(c4ccc(OC(F)(F)F)cc4)CC3)c2F)[nH]c(=O)c1F` [Example 72, N-[2-fluoro-3-(5-fluoro-4-methyl-6-oxo-1,6-dihydropyrimidin-2-yl)-4-(trifluoromethyl)benzyl]-1-[4-(trifluoromethoxy)phenyl]piperidine-4-carboxamide], the half-inhibitory concentration (IC50) was less than 1 nM.

On to `O=C(NCc1ccc(C(F)(F)F)c(-c2nc(C(F)(F)F)cc(=O)[nH]2)c1F)C1CCN(c2ccc(F)c(Cl)c2)CC1` [Example 88, 1-(3-chloro-4-fluorophenyl)-N-{2-fluoro-3-[6-oxo-4-(trifluoromethyl)-1,6-dihydropyrimidin-2-yl]-4-(trifluoromethyl)benzyl}piperidine-4-carboxamide], for which the IC50 was less than 1 nM.

Staying with this assay, now noted: microsomes of COS-1 cells transfected with human mPGES-1 cDNA; PGH2 1 μM; 4° C., 4 minutes; PGE2 by EIA; read-out: h mPGES1 IC50.
Regarding `O=c1cc(C(F)(F)F)nc(-c2c(C(F)(F)F)ccc(CNC(=O)[C@H]3C[C@H](OCc4ccc(Cl)cc4F)C3)c2F)[nH]1` [Example 149, trans-3-[(4-chloro-2-fluorobenzyl)oxy]-N-{2-fluoro-3-[6-oxo-4-(trifluoromethyl)-1,6-dihydropyrimidin-2-yl]-4-(trifluoromethyl)benzyl}cyclobutane-1-carboxamide], the IC50 is less than 1 nM. The same measure, in the same setting: the value for `O=c1cc(C(F)(F)F)nc(-c2c(C(F)(F)F)ccc(CNC(=O)[C@H]3C[C@H](OCc4ccc(F)c(F)c4)C3)c2F)[nH]1` [Example 150, trans-3-[(3,4-difluorobenzyl)oxy]-N-{2-fluoro-3-[6-oxo-4-(trifluoromethyl)-1,6-dihydropyrimidin-2-yl]-4-(trifluoromethyl)benzyl}cyclobutane-1-carboxamide] was less than 1 nM. Still for that read-out and setting: the value for `O=c1cc(C(F)F)nc(-c2c(C(F)(F)F)ccc(CNC(=O)[C@H]3C[C@H](OCc4ccc(F)cc4F)C3)c2F)[nH]1` [Example 167, trans-3-[(2,4-difluorobenzyl)oxy]-N-{3-[4-(difluoromethyl)-6-oxo-1,6-dihydropyrimidin-2-yl]-2-fluoro-4-(trifluoromethyl)benzyl}cyclobutane-1-carboxamide] was less than 1 nM. For `CCc1nc(-c2c(C(F)(F)F)ccc(CNC(=O)[C@H]3C[C@H](OCc4ccc(Cl)cc4)C3)c2F)[nH]c(=O)c1F` [Example 231, trans-3-[(4-chlorobenzyl)oxy]-N-[3-(4-ethyl-5-fluoro-6-oxo-1,6-dihydropyrimidin-2-yl)-2-fluoro-4-(trifluoromethyl)benzyl]cyclobutane-1-carboxamide], the IC50 was less than 1 nM. On the same count and under the same terms, the value for `O=c1cc(C(F)(F)F)nc(-c2c(C(F)(F)F)ccc(CNC(=O)[C@H]3C[C@H](OCc4cccc(F)c4)C3)c2F)[nH]1` [Example 152, trans-N-{2-fluoro-3-[6-oxo-4-(trifluoromethyl)-1,6-dihydropyrimidin-2-yl]-4-(trifluoromethyl)benzyl}-3-[(3-fluorobenzyl)oxy]cyclobutane-1-carboxamide] was less than 1 nM; that for `CCc1nc(-c2c(C(F)(F)F)ccc(CNC(=O)[C@H]3C[C@H](OCc4ccc(F)c(F)c4)C3)c2F)[nH]c(=O)c1F` [Example 237, trans-3-[(3,4-difluorobenzyl)oxy]-N-[3-(4-ethyl-5-fluoro-6-oxo-1,6-dihydropyrimidin-2-yl)-2-fluoro-4-(trifluoromethyl)benzyl]cyclobutane-1-carboxamide] was less than 1 nM.
